Source: article PMC5408233, “Marine Cyclic Guanidine Alkaloids Monanchomycalin B and Urupocidin A Act as Inhibitors of TRPV1, TRPV2 and TRPV3, but not TRPA1 Receptors” (Marine Drugs, 2017)
Where two headings read alike, the source gives them in different places. Values belong to the compound of their own block, whether it stands above or below them.

How the values were obtained:
[1] = target: T1, rat TRPV1 (rTRPV1) (Rattus norvegicus, UniProt O35433); parameters: method as in doi:10.1007/s10600-015-1243-6, doi:10.1016/j.tetlet.2012.12.099; conditions: determined in the same test system; read-out: EC50, inhibitory activity against rTRPV1; cited from earlier work
T1 construct: expressed in transfected cells
T1 sequence (O35433 whole entry): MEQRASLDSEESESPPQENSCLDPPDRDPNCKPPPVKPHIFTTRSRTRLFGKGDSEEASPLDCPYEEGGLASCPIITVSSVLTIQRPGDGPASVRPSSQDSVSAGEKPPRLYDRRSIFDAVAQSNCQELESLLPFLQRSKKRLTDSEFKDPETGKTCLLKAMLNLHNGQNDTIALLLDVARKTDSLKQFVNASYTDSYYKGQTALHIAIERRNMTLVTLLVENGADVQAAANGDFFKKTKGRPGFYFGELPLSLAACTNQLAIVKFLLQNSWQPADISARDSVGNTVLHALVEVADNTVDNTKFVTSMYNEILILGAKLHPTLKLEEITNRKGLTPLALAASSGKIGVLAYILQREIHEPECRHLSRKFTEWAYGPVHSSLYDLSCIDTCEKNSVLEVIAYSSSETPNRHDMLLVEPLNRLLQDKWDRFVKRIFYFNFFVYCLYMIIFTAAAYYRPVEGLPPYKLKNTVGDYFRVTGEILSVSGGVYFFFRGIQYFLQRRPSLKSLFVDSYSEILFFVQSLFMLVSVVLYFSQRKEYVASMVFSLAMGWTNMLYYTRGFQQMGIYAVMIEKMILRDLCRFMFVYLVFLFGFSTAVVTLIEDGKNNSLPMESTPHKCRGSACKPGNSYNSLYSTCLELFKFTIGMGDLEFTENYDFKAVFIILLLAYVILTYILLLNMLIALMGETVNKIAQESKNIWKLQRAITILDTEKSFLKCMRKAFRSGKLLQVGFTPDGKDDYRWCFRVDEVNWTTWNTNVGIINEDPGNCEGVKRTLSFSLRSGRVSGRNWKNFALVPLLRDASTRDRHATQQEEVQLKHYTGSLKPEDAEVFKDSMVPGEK

[2] = target: T2, human TRPV3 (hTRPV3) (Homo sapiens, UniProt Q8NET8); parameters: method as in doi:10.1007/s10600-015-1243-6, doi:10.1016/j.tetlet.2012.12.099; conditions: determined in the same test system; read-out: EC50, inhibitory activity toward hTRPV3; cited from earlier work
T2 construct: expressed in transfected cells
T2 sequence (Q8NET8 1-790): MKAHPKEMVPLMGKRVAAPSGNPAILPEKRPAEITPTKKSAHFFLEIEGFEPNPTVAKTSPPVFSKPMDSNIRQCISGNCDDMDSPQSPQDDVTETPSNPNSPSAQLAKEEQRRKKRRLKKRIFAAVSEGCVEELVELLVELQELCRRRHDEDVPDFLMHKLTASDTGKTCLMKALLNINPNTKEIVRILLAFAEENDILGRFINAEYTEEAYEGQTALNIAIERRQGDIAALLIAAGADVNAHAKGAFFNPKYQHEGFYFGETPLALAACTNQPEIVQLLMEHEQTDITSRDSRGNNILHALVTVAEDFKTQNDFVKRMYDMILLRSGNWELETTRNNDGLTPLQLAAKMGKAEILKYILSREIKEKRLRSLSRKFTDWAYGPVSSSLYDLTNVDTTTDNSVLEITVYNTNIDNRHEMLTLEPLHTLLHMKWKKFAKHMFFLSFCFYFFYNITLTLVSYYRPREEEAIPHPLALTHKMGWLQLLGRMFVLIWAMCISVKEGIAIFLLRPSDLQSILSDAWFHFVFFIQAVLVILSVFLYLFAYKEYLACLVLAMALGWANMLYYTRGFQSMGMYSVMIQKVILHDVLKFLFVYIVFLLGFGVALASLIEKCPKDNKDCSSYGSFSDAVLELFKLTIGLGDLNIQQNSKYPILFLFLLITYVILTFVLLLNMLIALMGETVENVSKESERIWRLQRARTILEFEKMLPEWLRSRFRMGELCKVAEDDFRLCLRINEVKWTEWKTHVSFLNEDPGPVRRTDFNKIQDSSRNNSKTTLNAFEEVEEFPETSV

[3] = target: T3, rat TRPA1 (rTRPA1) (Rattus norvegicus, UniProt Q6RI86); parameters: method as in doi:10.1007/s10600-015-1243-6; conditions: read-out: EC50, inhibition of rTRPA1; cited from earlier work
T3 construct: expressed in transfected cells
T3 sequence (Q6RI86 whole entry): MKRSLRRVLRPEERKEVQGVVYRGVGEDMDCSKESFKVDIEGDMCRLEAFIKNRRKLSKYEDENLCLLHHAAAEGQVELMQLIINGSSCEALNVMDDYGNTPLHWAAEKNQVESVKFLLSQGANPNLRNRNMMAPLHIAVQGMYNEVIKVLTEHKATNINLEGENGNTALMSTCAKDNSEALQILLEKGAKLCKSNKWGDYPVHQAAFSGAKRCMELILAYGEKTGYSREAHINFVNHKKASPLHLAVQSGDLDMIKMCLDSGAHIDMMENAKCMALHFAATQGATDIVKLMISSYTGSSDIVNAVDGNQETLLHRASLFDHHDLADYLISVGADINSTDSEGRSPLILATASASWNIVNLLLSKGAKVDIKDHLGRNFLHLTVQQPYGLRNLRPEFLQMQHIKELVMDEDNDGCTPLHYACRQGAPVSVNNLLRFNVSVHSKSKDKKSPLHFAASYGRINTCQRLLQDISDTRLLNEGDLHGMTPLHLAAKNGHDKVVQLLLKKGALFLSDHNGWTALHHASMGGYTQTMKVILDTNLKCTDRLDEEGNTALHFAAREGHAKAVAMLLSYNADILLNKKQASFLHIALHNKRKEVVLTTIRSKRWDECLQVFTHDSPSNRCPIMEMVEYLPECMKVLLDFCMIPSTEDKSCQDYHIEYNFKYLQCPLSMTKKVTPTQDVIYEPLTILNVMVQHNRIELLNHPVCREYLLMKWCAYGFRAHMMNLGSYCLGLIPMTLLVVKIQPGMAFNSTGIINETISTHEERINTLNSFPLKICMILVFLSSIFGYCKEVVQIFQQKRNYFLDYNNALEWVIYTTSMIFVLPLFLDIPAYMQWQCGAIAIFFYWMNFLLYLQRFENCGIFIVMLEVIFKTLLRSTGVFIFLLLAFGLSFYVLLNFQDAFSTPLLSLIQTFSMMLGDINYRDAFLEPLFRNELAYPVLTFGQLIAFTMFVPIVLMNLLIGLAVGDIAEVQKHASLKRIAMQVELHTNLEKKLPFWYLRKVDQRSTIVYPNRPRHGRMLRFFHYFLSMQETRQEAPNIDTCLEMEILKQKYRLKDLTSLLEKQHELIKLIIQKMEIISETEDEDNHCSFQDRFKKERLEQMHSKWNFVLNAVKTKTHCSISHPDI

[4] = target: T4, mouse TRPV2 (mTRPV2) (Mus musculus, UniProt Q9WTR1); assay: Fluo-4 intracellular calcium assay, inhibition of 2APB-induced [Ca2+] response in CHO cells expressing mTRPV2; format: cell-based
T4 construct: expressed in transfected cells
T4 sequence (Q9WTR1 1-756): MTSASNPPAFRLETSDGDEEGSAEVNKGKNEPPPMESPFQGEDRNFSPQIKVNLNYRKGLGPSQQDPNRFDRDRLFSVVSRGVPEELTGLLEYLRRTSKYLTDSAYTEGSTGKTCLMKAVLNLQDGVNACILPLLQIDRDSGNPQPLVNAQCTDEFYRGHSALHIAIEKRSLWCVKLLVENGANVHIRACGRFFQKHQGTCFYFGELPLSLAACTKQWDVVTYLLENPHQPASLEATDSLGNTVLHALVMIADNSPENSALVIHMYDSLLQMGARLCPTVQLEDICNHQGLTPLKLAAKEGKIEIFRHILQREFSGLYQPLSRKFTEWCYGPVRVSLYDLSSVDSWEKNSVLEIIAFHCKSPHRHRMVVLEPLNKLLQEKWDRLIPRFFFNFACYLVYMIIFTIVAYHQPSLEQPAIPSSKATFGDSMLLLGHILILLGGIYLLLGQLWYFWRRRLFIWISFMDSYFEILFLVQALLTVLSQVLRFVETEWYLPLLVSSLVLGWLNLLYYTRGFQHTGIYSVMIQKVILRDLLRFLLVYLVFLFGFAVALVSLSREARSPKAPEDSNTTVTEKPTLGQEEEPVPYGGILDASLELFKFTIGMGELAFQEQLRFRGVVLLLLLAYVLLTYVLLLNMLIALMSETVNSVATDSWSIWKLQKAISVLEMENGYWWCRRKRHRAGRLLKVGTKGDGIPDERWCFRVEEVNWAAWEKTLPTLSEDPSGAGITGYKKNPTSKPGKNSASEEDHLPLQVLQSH
Protocol: (§1) The guanidine alkaloids (1–4) were tested on inhibitory activities against rTRPV1 (Figure 2A), mTRPV2 (Figure 2B), hTRPV3 (Figure 2C) and rTRPA1 receptors expressed in CHO (Chinese hamster ovary) cells in a Fluo-4–based intracellular calcium assay.
(§2) Figure 2 Dose-response curves for monanchomycalin B (1), urupocidin A (2), semi-synthetic urupocidin A derivatives (3, 4) inhibitory activity on agonist-induced [Ca^2+] responses in CHO cells expressing rTRPV1 (A); mTRPV2 (B); hTRPV3 (C). Responses were measured as the pseudo-ratio (ΔFI/FI) determined using the following formula ΔFI/FI = (FI-FIbase)/FIbase, where FI is the measured peak fluorescence intensity, Fbase is the fluorescence intensity in non-stimulated cells. Inhibitory activity was expressed as the percentage of the response in the control experiment (untreated by alkaloids cells). Data are expressed as mean ± s.e. (n = 4–8).
(§3) The effect of 1–4 on all the TRP-expressing cells was measured after preincubation at 37 °C for 30 min for standardization. […] Capsazepine (CZP) or non-specific blocker ruthenium red (RR) were used as a positive control for TRPV1 and for the other studied TRP receptors correspondingly.
The mouse TRPV2 gene was cloned form pancreatic beta cell line MIN6 and the CHO cell line stably expressing mouse TRPV2 was generated using T-Rex System (Thermo Fisher Scientific Inc., Waltham, MA, USA) similarly previously obtained stable cell lines for rat TRPV1, human TRPV3 and rat TRPA1 [6, 8]. Fluorescent assays were performed as described in [6]. […] Changes in cell fluorescence (λex = 485 nm, λem = 520 nm) were monitored using NOVO star (BMG LABTECH, Ortenberg, Germany) before and after the addition of relevant agonist (500 nM capsaicin for rTRPV1, 300 μM 2APB for mTRPV2, 200 μM 2APB for hTRPV3, 100 μM AITC for rTRPA1) at 25 °C. […] The EC50 values were determined as the concentration of test substance required to produce half-maximal decreases in [Ca^2+].

[5] = target: T2, human TRPV3 (hTRPV3); assay: Fluo-4 intracellular calcium assay, inhibition of 2APB-induced [Ca2+] response in CHO cells expressing hTRPV3; format: cell-based
Protocol: as §1, §2, §3
(§4) The mouse TRPV2 gene was cloned form pancreatic beta cell line MIN6 and the CHO cell line stably expressing mouse TRPV2 was generated using T-Rex System (Thermo Fisher Scientific Inc., Waltham, MA, USA) similarly previously obtained stable cell lines for rat TRPV1, human TRPV3 and rat TRPA1 [6, 8]. Fluorescent assays were performed as described in [6]. The alkaloid’s solutions of desired concentration were obtained by serial dilution of water stock solutions (10 mg/mL) in calcium assay buffer (10 mM HEPES/HBSS, pH 7.4). The buffer alone (negative control) or serial dilutions of alkaloids 1–4 (20 μl) were added to the cells loaded with the cytoplasmic calcium indicator Fluo-4AM using Fluo-4 Direct™ Calcium Assay Kit (Thermo Fisher Scientific Inc., Waltham, MA, USA) (80 μl) and the cells were incubated 30 min at 37 °C. Changes in cell fluorescence (λex = 485 nm, λem = 520 nm) were monitored using NOVO star (BMG LABTECH, Ortenberg, Germany) before and after the addition of relevant agonist (500 nM capsaicin for rTRPV1, 300 μM 2APB for mTRPV2, 200 μM 2APB for hTRPV3, 100 μM AITC for rTRPA1) at 25 °C. Average cell responses to agonists in controls were about 60, 45, 40, 85% of the responses produced by 5 μM ionomycin for rTRPV1, mTRPV2, hTRPV3, rTRPA1 correspondingly. To avoid the spread of the data due to prolonged instrumental measurement each experimental point has control in the nearest plate wells. Curve fitting and parameter estimations were performed with Microsoft Excel 2007 (Microsoft Corporation, Redmond, WA, USA) and Origin 7.0 (OriginLab Corporation, Northampton, MA, USA). The EC50 values were determined as the concentration of test substance required to produce half-maximal decreases in [Ca^2+].

[6] = target: T3, rat TRPA1 (rTRPA1); assay: Fluo-4 intracellular calcium assay, inhibition of AITC-induced [Ca2+] response in CHO cells expressing rTRPA1; format: cell-based; conditions: for EC50 (µM) rTRPA1: inhibitory activity, CHO cells expressing rTRPA1, agonist 100 μM AITC, preincubation 30 min at 37 °C
Protocol: as §1, §3, §4

[7] = target: T1, rat TRPV1 (rTRPV1); assay: Fluo-4 intracellular calcium assay, inhibition of capsaicin-induced [Ca2+] response in CHO cells expressing rTRPV1; format: cell-based
Protocol: as §1, §2, §3, §4

[8] = test system: HL-60 human leukemia cells; parameters: method as in doi:10.1016/j.tetlet.2012.05.162; conditions: cited from earlier work
[9] = inhibitory activity, CHO cells expressing hTRPV3, agonist 200 μM 2APB, preincubation 30 min at 37 °C, mean ± s.e., read-out: EC50 (µM) hTRPV3
[10] = inhibitory activity, CHO cells expressing rTRPV1, agonist 500 nM capsaicin, preincubation 30 min at 37 °C, mean ± s.e., read-out: EC50 (µM) rTRPV1
[11] = 20 µM RR, positive control, data not shown

Compound: C1=C/[C@H]2[C@@H]3CCCC[C@H]3C[C@@H]2NCCCN[C@@H]2C[C@@H]3CCCC[C@H]3[C@@H]2/C=C/1 [haliclonadiamine]
EC50 [1]: 19.9 µM | EC50 [2]: 77 µM | EC50 [3]: 86.7 µM

Compound: CCC=CC1CCC2(CC3CCC4C(C(=O)OCCCCCCCCCCCCCCCC(=O)N(CCCN)CCCCN)C5(CCCC(C)O5)NC(=[N+]34)N2)O1 (stereo not drawn) [Compound 1, monanchomycalin B]
EC50 [4]: 2.84 ± 1.01 µM | EC50 [5]: 3.25 ± 0.6 µM | EC50 (µM) rTRPA1 [6]: not active | EC50 [7]: 6.02 ± 0.36 µM | Cytotoxic activities against HL-60 human leukemia cells [8]: potent cytotoxic activities

Inhibition of the [Ca2+] response induced by specific agonist (TRPV1) ([7]; 10 µM CZP, positive control, data not shown): full inhibition
Compound: Oc1cc2c(cc1O)CN(C(=S)NCCc1ccc(Cl)cc1)CCC2 [CZP, Capsazepine, reference compound]

EC50 [5, 9]: 29.2 ± 3.18 µM | EC50 (µM) rTRPA1 [6]: not active | EC50 [7, 10]: 52.8 ± 5.31 µM
Compound: CCCCCCC[C@@H](O)C[C@H]1CCC2=C(C(=O)OCCCCN(O)C(=N)N)[C@H](CCCCCCC)NC(=N)N21 [Compound 3, Tetrahydrourupocidin A]

EC50 ([4]; inhibitory activity, CHO cells expressing mTRPV2, agonist 300 μM 2APB, preincubation 30 min at 37 °C, mean ± s.e., read-out: EC50 (µM) mTRPV2): 28.1 ± 6.65 µM | EC50 [5, 9]: 23.6 ± 2.03 µM | EC50 (µM) rTRPA1 [6]: not active | EC50 [7, 10]: 21.5 ± 2.51 µM
Compound: CCC/C=C\CC[C@@H](O)C[C@H]1CCC2=C(C(=O)OCCCCN(O)C(=N)N)[C@H](CC/C=C\CCC)NC(=N)N21 [Compound 2, urupocidin A]

Compound: pulchranin A
EC50 [1]: 27.5 µM | EC50 [2]: 71.8 µM | EC50 [3]: 174 µM

EC50 (µM) hTRPV3 ([5]; inhibitory activity, CHO cells expressing hTRPV3, agonist 200 μM 2APB, preincubation 30 min at 37 °C, mean ± s.e.): almost not active | EC50 [5, 9]: 193 ± 25.5 µM | EC50 (µM) rTRPA1 [6]: not active | EC50 (µM) rTRPV1 ([7]; inhibitory activity, CHO cells expressing rTRPV1, agonist 500 nM capsaicin, preincubation 30 min at 37 °C, mean ± s.e.): almost not active | EC50 [7, 10]: 435 ± 49.9 µM
Compound: CCC/C=C\CC[C@@H](O)C[C@H]1CCC2=C(C(=O)OC)[C@H](CC/C=C\CCC)NC(=N)N21 [Compound 4]

Inhibition of the [Ca2+] response induced by specific agonist (TRPV2) [4, 11]: full inhibition | Inhibition of the [Ca2+] response induced by specific agonist (TRPV3) [5, 11]: full inhibition | Inhibition of the [Ca2+] response induced by specific agonist (TRPA1) [6, 11]: full inhibition
Compound: N.N.N.N.N.N.N.N.N.N.N.N.N.N.[Cl-].[Cl-].[Cl-].[Cl-].[Cl-].[Cl-].[O-2].[O-2].[Ru+3].[Ru+3].[Ru+4] [RR, ruthenium red, reference compound]
